pIC50: −log10 of the molar value.
Columns and labels:
[1] = target: ATP-binding cassette sub-family C member 2 (Homo sapiens, UniProt Q92887); test: Inhibition of human MRP2
[2] = target: T1, BCRP (ABCG2) (Homo sapiens, UniProt Q9UNQ0); test: Activity at human BCRP expressed in MDCK2 cells assessed as apical to basolateral mass balance at 3 uM by liquid scintillation counting analysis in presence of 3 uM P-gp and BCRP inhibitor GF120918; assay type: ADME, cell-based, MDCK-II; settings: with GF120918 (P-gp and BCRP inhibitor), read-out: Activity
T1 sequence (Q9UNQ0 whole entry): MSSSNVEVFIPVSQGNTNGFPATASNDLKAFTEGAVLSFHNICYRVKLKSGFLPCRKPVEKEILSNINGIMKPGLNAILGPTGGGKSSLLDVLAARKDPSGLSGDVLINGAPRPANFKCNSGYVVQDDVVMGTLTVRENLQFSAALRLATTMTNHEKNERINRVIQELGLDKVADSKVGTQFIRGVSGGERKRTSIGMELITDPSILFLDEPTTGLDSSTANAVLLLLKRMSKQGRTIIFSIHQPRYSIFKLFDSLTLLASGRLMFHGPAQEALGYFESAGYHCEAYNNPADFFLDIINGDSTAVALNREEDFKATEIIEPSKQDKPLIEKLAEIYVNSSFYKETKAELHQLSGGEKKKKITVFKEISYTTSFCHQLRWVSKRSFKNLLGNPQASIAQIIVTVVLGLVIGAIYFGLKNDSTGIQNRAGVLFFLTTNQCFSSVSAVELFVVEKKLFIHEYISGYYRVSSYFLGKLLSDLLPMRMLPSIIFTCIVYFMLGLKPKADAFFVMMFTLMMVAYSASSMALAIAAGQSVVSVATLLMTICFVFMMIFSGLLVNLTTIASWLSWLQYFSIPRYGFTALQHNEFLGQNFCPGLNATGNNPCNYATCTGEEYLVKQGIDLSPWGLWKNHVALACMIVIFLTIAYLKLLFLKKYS

[3] = target: T2, UDP-glucuronosyltransferase 1A1 (Homo sapiens, UniProt P22309); test: (§1) Drug metabolism assessed as intrinsic clearance for human recombinant UGT1A1-mediated DTG glucuronide M2 ((2S,3S,4S,5R,6S)-6-((4R,12aS)-9-(2,4-difluorobenzylcarbamoyl)-4-methyl-6,8-dioxo-3,4,6,8,12,12a-hexahydro-2H-[1,3]oxazino[3,2-d]pyrido[1,2-a]pyrazin-7-yloxy)-3,4,5-trihydroxytetrahydro-2H-pyran-2-carboxylic acid) formation after 120 mins measured per mg of protein by radio-HPLC analysis; assay type: ADME; settings: recombinant enzyme
T2 sequence (P22309 whole entry): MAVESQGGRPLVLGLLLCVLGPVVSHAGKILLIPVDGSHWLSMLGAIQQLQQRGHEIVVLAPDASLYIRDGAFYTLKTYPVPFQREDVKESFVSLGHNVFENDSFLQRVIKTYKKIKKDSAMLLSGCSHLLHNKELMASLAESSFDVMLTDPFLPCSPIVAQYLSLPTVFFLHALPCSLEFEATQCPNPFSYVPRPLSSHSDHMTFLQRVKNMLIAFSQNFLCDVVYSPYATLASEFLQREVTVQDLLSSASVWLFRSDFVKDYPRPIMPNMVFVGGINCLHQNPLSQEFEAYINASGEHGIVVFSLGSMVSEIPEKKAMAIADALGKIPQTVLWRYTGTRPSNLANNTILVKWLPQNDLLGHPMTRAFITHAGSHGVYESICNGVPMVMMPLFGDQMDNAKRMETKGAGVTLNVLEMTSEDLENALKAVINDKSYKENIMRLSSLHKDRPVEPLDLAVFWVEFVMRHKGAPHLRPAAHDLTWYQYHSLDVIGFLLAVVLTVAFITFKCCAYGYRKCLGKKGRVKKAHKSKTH

[4] = target: UDP-glucuronosyltransferase 2B4 (Homo sapiens, UniProt P06133); test: as §1, with “UDPGA-fortified” for “intrinsic clearance for”, “UGT2B4-mediated” for “UGT1A1-mediated”, “metabolite” for “M2”, “formation at 16 uM” for “formation”, “mins” for “mins measured per mg of protein”; assay type: ADME; settings: recombinant enzyme
Sequence of UDP-glucuronosyltransferase 2B4 (P06133 whole entry): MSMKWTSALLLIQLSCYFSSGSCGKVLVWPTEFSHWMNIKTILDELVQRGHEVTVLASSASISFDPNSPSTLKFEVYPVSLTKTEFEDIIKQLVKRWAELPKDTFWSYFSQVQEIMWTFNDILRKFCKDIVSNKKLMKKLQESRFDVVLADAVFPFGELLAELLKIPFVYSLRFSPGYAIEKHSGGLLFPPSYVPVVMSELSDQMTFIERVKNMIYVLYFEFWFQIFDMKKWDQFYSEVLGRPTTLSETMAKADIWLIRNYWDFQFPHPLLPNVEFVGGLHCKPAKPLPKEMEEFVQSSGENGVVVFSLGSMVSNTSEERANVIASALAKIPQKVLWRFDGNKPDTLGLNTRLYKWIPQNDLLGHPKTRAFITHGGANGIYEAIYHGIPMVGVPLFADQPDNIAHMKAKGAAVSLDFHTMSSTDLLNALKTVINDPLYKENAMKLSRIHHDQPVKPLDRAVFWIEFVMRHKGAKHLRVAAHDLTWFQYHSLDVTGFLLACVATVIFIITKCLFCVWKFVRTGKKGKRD

Sequence of ATP-binding cassette sub-family C member 2 (Q92887 whole entry): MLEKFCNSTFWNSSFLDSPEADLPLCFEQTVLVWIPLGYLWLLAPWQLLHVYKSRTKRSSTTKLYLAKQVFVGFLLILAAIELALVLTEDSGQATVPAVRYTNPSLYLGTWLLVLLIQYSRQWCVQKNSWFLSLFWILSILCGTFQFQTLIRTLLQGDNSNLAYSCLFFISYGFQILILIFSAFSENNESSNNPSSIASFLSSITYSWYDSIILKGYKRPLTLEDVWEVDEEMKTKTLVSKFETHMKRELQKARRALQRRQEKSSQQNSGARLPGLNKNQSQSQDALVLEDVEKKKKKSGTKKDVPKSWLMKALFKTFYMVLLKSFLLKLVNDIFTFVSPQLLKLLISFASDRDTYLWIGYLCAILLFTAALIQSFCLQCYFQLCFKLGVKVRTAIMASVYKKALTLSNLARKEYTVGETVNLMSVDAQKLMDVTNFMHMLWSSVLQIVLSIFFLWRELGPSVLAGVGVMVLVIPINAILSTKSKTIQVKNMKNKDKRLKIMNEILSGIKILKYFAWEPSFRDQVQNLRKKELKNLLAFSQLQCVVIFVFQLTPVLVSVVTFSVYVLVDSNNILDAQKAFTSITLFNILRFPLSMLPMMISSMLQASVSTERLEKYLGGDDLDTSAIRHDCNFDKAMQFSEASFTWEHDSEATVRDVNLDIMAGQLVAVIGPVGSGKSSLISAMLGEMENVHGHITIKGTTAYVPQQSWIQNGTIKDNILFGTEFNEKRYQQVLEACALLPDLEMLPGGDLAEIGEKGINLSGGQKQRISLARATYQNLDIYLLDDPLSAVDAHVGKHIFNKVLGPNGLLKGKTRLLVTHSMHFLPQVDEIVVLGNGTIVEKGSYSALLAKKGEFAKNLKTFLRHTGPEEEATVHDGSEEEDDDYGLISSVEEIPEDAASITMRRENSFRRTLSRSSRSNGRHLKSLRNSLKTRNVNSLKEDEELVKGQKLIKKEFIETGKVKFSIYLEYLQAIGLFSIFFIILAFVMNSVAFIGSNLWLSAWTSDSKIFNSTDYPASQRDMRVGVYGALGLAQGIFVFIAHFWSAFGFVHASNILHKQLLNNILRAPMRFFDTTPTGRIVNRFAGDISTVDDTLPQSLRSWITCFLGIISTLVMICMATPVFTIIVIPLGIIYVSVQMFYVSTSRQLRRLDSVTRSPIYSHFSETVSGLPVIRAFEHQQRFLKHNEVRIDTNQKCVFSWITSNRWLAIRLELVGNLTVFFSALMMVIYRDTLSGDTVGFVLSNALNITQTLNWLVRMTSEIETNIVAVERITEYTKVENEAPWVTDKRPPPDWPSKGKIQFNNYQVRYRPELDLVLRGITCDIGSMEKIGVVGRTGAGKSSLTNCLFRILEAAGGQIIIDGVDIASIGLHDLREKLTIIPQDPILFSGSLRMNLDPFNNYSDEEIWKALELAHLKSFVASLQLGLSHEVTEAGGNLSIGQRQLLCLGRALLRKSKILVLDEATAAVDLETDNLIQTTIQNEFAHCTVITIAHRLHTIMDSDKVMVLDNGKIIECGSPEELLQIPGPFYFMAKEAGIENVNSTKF

For C[C@@H]1CCO[C@H]2Cn3cc(C(=O)NCc4ccc(F)cc4F)c(=O)c(O)c3C(=O)N12 [DOLUTEGRAVIR], the pIC50 [1] was < 4.05, the recovery at 3 µM [2] was 81% and the CL [3] was 3.2 µL/min/g. For the same compound, the Drug metabolism [4] was “metabolite_not_detected”.
